Reference: patent US9273057B2 (Bristol-Myers Squibb Company, priority 2012, dated 2016)
Structures can show the parent of a compound that is named as a salt.

Each molecule was assayed against CK2A1 (CK2α/β) (Homo sapiens, UniProt P68400) (assay: CK2 kinase assay, CK2A1 (CK2α/β)). Conditions: Table A; read-out: CK2A1 (CK2α/β) (IC50).
Sequence of CK2A1 (CK2α/β) (P68400 whole entry, species assumed): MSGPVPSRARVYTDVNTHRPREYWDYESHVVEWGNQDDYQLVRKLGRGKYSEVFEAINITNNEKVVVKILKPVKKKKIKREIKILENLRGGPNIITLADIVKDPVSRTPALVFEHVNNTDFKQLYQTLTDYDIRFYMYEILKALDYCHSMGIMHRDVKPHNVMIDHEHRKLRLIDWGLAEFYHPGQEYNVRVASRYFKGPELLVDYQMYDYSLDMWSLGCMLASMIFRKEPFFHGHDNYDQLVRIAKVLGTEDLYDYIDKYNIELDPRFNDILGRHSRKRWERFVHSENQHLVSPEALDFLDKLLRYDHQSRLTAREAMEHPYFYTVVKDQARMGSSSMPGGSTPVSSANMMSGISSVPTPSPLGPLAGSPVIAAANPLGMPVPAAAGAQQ
Sequence of CK2A1 (CK2α/β) (P67870 whole entry partner, species assumed): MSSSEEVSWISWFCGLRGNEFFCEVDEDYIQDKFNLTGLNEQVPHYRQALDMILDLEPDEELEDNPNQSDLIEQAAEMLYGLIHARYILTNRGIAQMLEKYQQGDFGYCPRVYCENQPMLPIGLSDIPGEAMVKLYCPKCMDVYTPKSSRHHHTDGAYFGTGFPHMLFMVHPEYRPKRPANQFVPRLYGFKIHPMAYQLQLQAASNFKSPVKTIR
Format: biochemical
Molecule `CC(=O)N1CC2(CCN(c3cc(C#N)cc(Nc4nc(NC5CC5)c5ncc(C#N)n5n4)c3Cl)CC2)C1` [Example 793, 2-((3-(2-acetyl-2,7-diazaspiro[3.5]nonan-7-yl)-2-chloro-5-cyanophenyl)amino)-4-(cyclopropylamino)imidazo[2,1-f][1,2,4]triazine-7-carbonitrile] has an IC50 of 0.81 nM. Work on `COCCN1CC(N2CCC(c3cc(C#N)cc(Nc4nc(NC5CC5)c5ncc(C#N)n5n4)c3Cl)CC2)C1` [Example 325, 2-((2-chloro-5-cyano-3-(1-(1-(2-methoxyethyl)-3-azetidinyl)-4-piperidinyl)phenyl)amino)-4-(cyclopropylamino)imidazo [2,1-f][1,2,4]triazine-7-carbonitrile] yielded an IC50 of 0.57 nM. With `N#Cc1cc(Nc2nc(NC3CC3)c3ncc(C#N)n3n2)c(Cl)c(N2CCN(CC(N)=O)CC2=O)c1` [Example 623, 2-(4-(2-chloro-5-cyano-3-((7-cyano-4-(cyclopropylamino)imidazo[2,1-f][1,2,4]triazin-2-yl)amino)phenyl)-3-oxopiperazin-1-yl)acetamide] the IC50 was 3.05 nM. Molecule `CC1(N2CCOCC2)CCN(c2cc(C#N)cc(Nc3nc(NC4CC4)c4ncc(C#N)n4n3)c2Cl)CC1` [Example 304, 2-((2-chloro-5-cyano-3-(4-methyl-4-morpholinopiperidin-1-yl)phenyl)amino)-4-(cyclopropylamino)imidazo[2,1-f][1,2,4]triazine-7-carbonitrile, HCl] has an IC50 of 0.8 nM. For `CCNc1nc(Nc2cc(C(N)=O)cc(N3CC[C@H](NC(=O)OC)[C@@H](O)C3)c2Cl)nn2c(C#N)cnc12` (racemic) [Example 389, (+/−)-methyl ((3R,4R)-1-(5-carbamoyl-2-chloro-3-((7-cyano-4-(ethylamino)imidazo[2,1-f][1,2,4]triazin-2-yl)amino)phenyl)-3-hydroxypiperidin-4-yl)carbamate], the IC50 was 3.39 nM. Molecule `CC(C)(O)C1CCN(C2CN(c3cc(C(F)F)cc(Nc4nc(NC5CC5)c5ncc(C#N)n5n4)c3Cl)C2)CC1` [Example 259, 2-((2-chloro-5-(difluoromethyl)-3-(3-(4-(1-hydroxy-1-methylethyl)-1-piperidinyl)-1-azetidinyl)phenyl)amino)-4-(cyclopropylamino)imidazo[2,1-f][1,2,4]triazine-7-carbonitrile] has an IC50 of 1.29 nM. Work on `N#Cc1cc(Nc2nc(NC3CC3)c3ncc(C#N)n3n2)c(Cl)c(N2CCN(C3CN(C(=O)CC(N)=O)C3)CC2)c1` [Example 519, 3-{3-[4-(2-chloro-5-cyano-3-{[7-cyano-4-(cyclopropylamino)imidazo[2,1-f][1,2,4]triazin-2-yl]amino}phenyl)piperazin-1-yl]azetidin-1-yl}-3-oxopropanamide] yielded an IC50 of 3.2 nM. `CCNc1nc(Nc2cc(C#N)cc(N3CC[C@@H](NC(=O)OC)[C@@H](N(C)CC(C)(C)O)C3)c2Cl)nn2c(C#N)cnc12` [Example 771, methyl N-[(3S,4R)-1-(2-chloro-5-cyano-3-{[7-cyano-4-(ethylamino)imidazo[2,1-f][1,2,4]triazin-2-yl]amino}phenyl)-3-[(2-hydroxy-2-methylpropyl)(methyl)amino]piperidin-4-yl] carbamate] was tested, and the IC50 was 7 nM. Molecule `CC(=O)OC(C)(C)C(=O)N1CCC(c2cc(C#N)cc(Nc3nc(NC4CC4)c4ncc(C#N)n4n3)c2Cl)CC1` [Example 228, 2-(4-(2-chloro-5-cyano-3-((7-cyano-4-(cyclopropylamino)imidazo[2,1-f][1,2,4]triazin-2-yl)amino)phenyl)-1-piperidinyl)-1,1-dimethyl-2-oxoethyl acetate] has an IC50 of 0.51 nM. Work on `CN1CCN(C2CN(c3cc(OC(F)F)cc(Nc4nc(NC5CC5)c5ncc(C#N)n5n4)c3Cl)C2)CC1` [Example 405, 2-((2-chloro-5-(difluoromethoxy)-3-(3-(4-methylpiperazin-1-yl)azetidin-1-yl)phenyl)amino)-4-(cyclopropylamino)imidazo[2,1-f][1,2,4]triazine-7-carbonitrile] yielded an IC50 of 0.48 nM. With `CC(O)CCc1cc(Cl)c(Nc2nc(NC3CC3)c3ncc(C#N)n3n2)cc1C#N` (stereo not drawn) [Example 722, 2-{[2-chloro-5-cyano-4-(3-hydroxybutyl)phenyl]amino}-4-(cyclopropylamino)imidazo [2,1-f][1,2,4]triazine-7-carbonitrile] the IC50 was 0.16 nM. `CN1CCN(c2cc(C#N)cc(Nc3nc(NC4CC4)c4ncc(C#N)n4n3)c2Cl)CC1CN1CC(F)C1` (stereo not drawn) [Example 708, 2-[(2-chloro-5-cyano-3-{3-[(3-fluoroazetidin-1-yl)methyl]-4-methylpiperazin-1-yl}phenyl)amino]-4-(cyclopropylamino)imidazo[2,1-f][1,2,4]triazine-7-carbonitrile] was tested, and the IC50 was 0.52 nM. Work on `C[C@@H](O)C(=O)N1CC2(CCN(c3cc(C#N)cc(Nc4nc(NC5CC5)c5ncc(C#N)n5n4)c3Cl)CC2)C1` [Example 794, (R)-2-((2-chloro-5-cyano-3-(2-(2-hydroxypropanoyl)-2,7-diazaspiro[3.5]nonan-7-yl)phenyl)amino)-4-(cyclopropylamino)imidazo[2,1-f][1,2,4]triazine-7-carbonitrile] yielded an IC50 of 1.41 nM. In the case of `CCNc1nc(Nc2cc(C#N)cc(N3CC[C@@H](NC(=O)OCCOCCOCCOCCOCCOCCOC)[C@H](O)C3)c2Cl)nn2c(C#N)cnc12` [Example 376, 2,5,8,11,14,17-hexaoxanonadecan-19-yl((3R,4R)-1-(2-chloro-5-cyano-3-((7-cyano-4-(ethylamino)imidazo[2,1-f][1,2,4]triazin-2-yl)amino)phenyl)-3-hydroxypiperidin-4-yl)carbamate], the IC50 is reported as 0.83 nM. Molecule `COC(=O)N[C@H]1CCN(c2cc(C#N)cc(Nc3nc(NC4CC4)c4ncc(C#N)n4n3)c2Cl)C[C@@H]1NCC(F)F` [Example 748, methyl ((3S,4S)-1-(2-chloro-5-cyano-3-((7-cyano-4-(cyclopropylamino)imidazo[2,1-f][1,2,4]triazin-2-yl)amino)phenyl)-3-((2,2-difluoroethyl)amino)piperidin-4-yl)carbamate] has an IC50 of 1.4 nM. `CC(C)(O)CC(=O)N1CCN(c2cc(C#N)cc(Nc3nc(NC4CC4)c4ncc(C#N)n4n3)c2Cl)CC1` [Example 91] gave an IC50 of 0.49 nM. `CCNc1nc(Nc2cc(C#N)cc(N3CC[C@@H](NC(=O)OC)[C@H](OC(=O)C[C@H](N)C(=O)OC(C)(C)C)C3)c2Cl)nn2c(C#N)cnc12` [Example 815, (S)-1-tert-butyl 4-((3R,4R)-1-(2-chloro-5-cyano-3-((7-cyano-4-(ethylamino)imidazo[2,1-f][1,2,4]triazin-2-yl)amino)phenyl)-4-((methoxycarbonyl)amino)piperidin-3-yl) 2-aminosuccinate hydrochloride] gave an IC50 of 18.7 nM. In the case of `CC(=O)N1CC(N2CCN(c3cc(C#N)cc(Nc4nc(NC5CC5)c5ncc(C#N)n5n4)c3F)CC2)C1` [Example 551, 2-((3-(4-(1-acetylazetidin-3-yl)piperazin-1-yl)-5-cyano-2-fluorophenyl)amino)-4-(cyclopropylamino)imidazo[2,1-f][1,2,4]triazine-7-carbonitrile], the IC50 is reported as 1.23 nM. Work on `CC(C)(O)CN1CCC(c2cc(C#N)cc(Nc3nc(NC4CC4)c4ncc(C#N)n4n3)c2Cl)CC1` [Example 219, 2-((2-chloro-5-cyano-3-(1-(2-hydroxy-2-methylpropyl)-4-piperidinyl)phenyl)amino)-4-(cyclopropylamino)imidazo[2,1-f][1,2,4]triazine-7-carbonitrile] yielded an IC50 of 0.59 nM. Molecule `CN1CC2CC1CN2c1cc(C#N)cc(Nc2nc(NCC(F)(F)F)c3ncc(C#N)n3n2)c1Cl` (racemic) [Example 430, (+/−)-2-((2-chloro-5-cyano-3-((1R,4R)-5-methyl-2,5-diazabicyclo[2.2.1]heptan-2-yl)phenyl)amino)-4-((2,2,2-trifluoroethyl)amino)imidazo[2,1-f][1,2,4]triazine-7-carbonitrile] has an IC50 of 0.97 nM. With `CCN(C1CCN(c2cc(C#N)cc(Nc3nc(NC4CC4)c4ncc(C#N)n4n3)c2Cl)CC1)C1CC(=O)N(C)C1` (stereo not drawn) [Example 715, 2-[(2-chloro-5-cyano-3-{4-[ethyl(1-methyl-5-oxopyrrolidin-3-yl)amino]piperidin-1-yl}phenyl)amino]-4-(cyclopropylamino)imidazo [2,1-f][1,2,4]triazine-7-carbonitrile] the IC50 was 10.8 nM. `CN1CC(N2CCN(c3cc(C#N)cc(Nc4nc(NC5CC5)c5ncc(C#N)n5n4)c3Cl)CC2)C1` [Example 72, 2-((2-chloro-5-cyano-3-(4-(1-methyl-3-azetidinyl)-1-piperazinyl)phenyl)amino)-4-(cyclopropylamino) imidazo[2,1-f][1,2,4] triazine-7-carbonitrile] was tested, and the IC50 was 0.79 nM. Molecule `CCOC(=O)N1CCC(NC2CCN(c3cc(C#N)cc(Nc4nc(NC5CC5)c5ncc(C#N)n5n4)c3Cl)CC2)CC1` [Example 118, ethyl 4-((1-(2-chloro-5-cyano-3-((7-cyano-4-(cyclopropylamino)imidazo [2,1-f][1,2,4]triazin-2-yl)amino)phenyl)-4-piperidinyl)amino)-1-piperidinecarboxylate] has an IC50 of 0.84 nM. `N#Cc1cc(CN2CCC(C(N)=O)CC2)c(Cl)c(Nc2nc(NC3CC3)c3ncc(C#N)n3n2)c1` [Example 471, 1-[(2-chloro-5-cyano-3-{[7-cyano-4-(cyclopropylamino)imidazo[2,1-f][1,2,4]triazin-2-yl]amino}phenyl)methyl]piperidine-4-carboxamide] showed an IC50 of 0.87 nM. `CC(=O)N1CCC[C@H]1C(=O)N1CCN(c2cc(C#N)cc(Nc3nc(NC4CC4)c4ncc(C#N)n4n3)c2Cl)CC1` [Example 83, 2-((3-(4-(1-acetyl-L-prolyl)-1-piperazinyl)-2-chloro-5-cyanophenyl)amino)-4-(cyclopropylamino) imidazo[2,1-f][1,2,4] triazine-7-carbonitrile] was tested, and the IC50 was 0.63 nM. Work on `CC(C)(C)CNCc1cc(C#N)cc(Nc2nc(NC3CC3)c3ncc(C#N)n3n2)c1Cl` [Example 469, 2-[(2-chloro-5-cyano-3-{[(2,2-dimethylpropyl)amino]methyl}phenyl)amino]-4-(cyclopropylamino)imidazo[2,1-f][1,2,4]triazine-7-carbonitrile] yielded an IC50 of 1.48 nM. `CS(=O)(=O)N1CC(N2CCC(c3cc(C#N)cc(Nc4nc(NC5CC5)c5ncc(C#N)n5n4)c3Cl)CC2)C1` [Example 321, 2-((2-chloro-5-cyano-3-(1-(1-(methylsulfonyl)azetidin-3-yl)piperidin-4-yl)phenyl)amino)-4-(cyclopropylamino)imidazo[2,1-f][1,2,4]triazine-7-carbonitrile] gave an IC50 of 0.66 nM.
